Laboratory results taken from patent publication US20210137941A1 (ZARODEX THERAPEUTICS LIMITED, priority 2018, published 2021).

How the values were obtained:
[1] = test system: splenic B cell and T cell populations; assay: Wild type mouse study: spleen immunophenotyping by flow cytometry; type: in vivo, C57BL/6 mice
[2] = test system: circulating immunoglobulins; assay: Wild type mouse study: circulating immunoglobulin profile by ELISA; type: in vivo, C57BL/6 mice; conditions: clozapine 5 and 10 mg/kg, haloperidol 1 mg/kg, IP 21 days; FIG. 24
[3] = test system: bone marrow B cell subsets; assay: Wild type mouse study: bone marrow B cell immunophenotyping by flow cytometry; type: in vivo, C57BL/6 mice; conditions: 1 mg/kg IP, 21 days
[4] = no clear dose-dependent relationship; not significant beyond 30 days; cited from earlier work
IgE = conditions: cited from earlier work
Sequence of IgE (P01854 1-425 limits assumed): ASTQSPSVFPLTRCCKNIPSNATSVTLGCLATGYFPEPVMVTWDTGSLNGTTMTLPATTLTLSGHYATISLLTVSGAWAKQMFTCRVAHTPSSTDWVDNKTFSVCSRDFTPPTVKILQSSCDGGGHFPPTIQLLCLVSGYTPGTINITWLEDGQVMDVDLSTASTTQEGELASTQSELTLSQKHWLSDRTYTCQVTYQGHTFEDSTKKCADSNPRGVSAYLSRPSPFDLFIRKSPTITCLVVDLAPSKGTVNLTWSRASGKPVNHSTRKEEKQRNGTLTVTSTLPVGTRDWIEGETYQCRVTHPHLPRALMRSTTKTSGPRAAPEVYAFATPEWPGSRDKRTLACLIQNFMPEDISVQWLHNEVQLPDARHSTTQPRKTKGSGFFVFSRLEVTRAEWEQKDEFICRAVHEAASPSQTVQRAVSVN

CD20 = target: T1, CD20 (Homo sapiens, UniProt P11836); conditions: cited from earlier work
T1 construct: host or cells: patients' own B cells
T1 sequence (P11836 1-297): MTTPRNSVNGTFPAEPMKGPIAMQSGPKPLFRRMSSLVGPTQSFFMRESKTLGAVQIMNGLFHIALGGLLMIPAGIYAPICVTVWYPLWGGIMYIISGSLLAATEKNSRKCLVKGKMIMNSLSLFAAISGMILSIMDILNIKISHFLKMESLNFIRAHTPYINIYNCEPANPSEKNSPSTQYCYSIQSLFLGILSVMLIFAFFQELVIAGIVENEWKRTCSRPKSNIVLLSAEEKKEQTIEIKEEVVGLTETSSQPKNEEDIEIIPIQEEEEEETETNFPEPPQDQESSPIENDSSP

O=C(CCCN1CCC(O)(c2ccc(Cl)cc2)CC1)c1ccc(F)cc1 [haloperidol]
activated T cells (B220+TCR-beta+) in spleen vs control ([1]; clozapine 2.5-10 mg/kg, haloperidol 1 mg/kg, IP 21 days, FIG. 21): modestly apparent | impact on B cell subpopulations ([1]; comparator, 1 mg/kg IP, 21 days): not observed | circulating IgA levels compared to control [2]: not observed | early developing B cell subsets in bone marrow (overall B, pre-pro B, pro-B) ([3]; FIG. 18): no significant effect | effect on long-lived plasma cells in the bone marrow ([3]; FIG. 20): no effect

Cc1cc2c(s1)Nc1ccccc1N=C2N1CCN(C)CC1 [olanzapine]
risk of pneumonia requiring hospitalization [4]: modestly increased risk

OCCOCCN1CCN(C2=Nc3ccccc3Sc3ccccc32)CC1 [quetiapine]
risk of pneumonia requiring hospitalization [4]: modestly increased risk

Cc1nc2n(c(=O)c1CCN1CCC(c3noc4cc(F)ccc34)CC1)CCCC2 [risperidone]
risk of pneumonia requiring hospitalization [4]: modestly increased risk

omalizumab: humanised monoclonal anti-IgE antibody
treatment of refractory chronic spontaneous urticaria (IgE; 2 phase II and 4 phase III trials (Chang et al., 2015)): efficacious and safe | clinical efficacy in allergic rhinitis (IgE; Holgate et al., 2005, Tsabouri et al., 2014): clinically effective | effect in refractory/relapsing Churg-Strauss syndrome (IgE; Jachiet et al., 2016): corticosteroid-sparing effect | efficacy in atopic individuals with coexisting eye disease (IgE; Kopp et al., 2009): has shown efficacy | burden of asthma symptoms (IgE; inner city children and young adults (Busse et al., 2011)): significant reduction | clinical outcome in eosinophilic oesophagitis (IgE; pilot study (Loizou et al., 2015)): clinical improvement in a proportion of patients

rituximab: anti-CD-20 antibody used for B cell depletion
clinical outcome in Churg-Strauss syndrome (CD20; Mohammad et al., 2016): clinically effective in inducing remission or partial responses | clinical outcome in atopic dermatitis (CD20; Simon et al., 2008): substantial clinical improvement | reduction of B cells in the skin, atopic dermatitis (CD20; Simon et al., 2008): ~50% | effect on IgE levels (CD20; van Vollenhoven et al., 2013): modest
